# Tested on: hypertriglyceridemic patients with cardiovascular disease or at high risk for cardiovascular disease
# Test: REDUCE-IT: safety, treatment-emergent adverse events (incl. bleeding and gastrointestinal TEAEs)
# [1] = gastrointestinal TEAE, Safety population N = 4089
# [2] = gastrointestinal TEAE, number of patients, Safety population N = 4089
# [3] = most frequent TEAEs (≥5%), N = 4089
# [4] = no significant increase vs placebo
# [5] = serious bleeding TEAE by preferred term, N = 4089
# [6] = serious bleeding TEAE by preferred term, number of patients, N = 4089
# [7] = serious bleeding TEAE, N = 4089
# [8] = serious bleeding TEAE, number of patients, N = 4089
# [9] = significantly higher than placebo
# Procedure: Specification of Variables and Procedures: Safety assessments included adverse events, clinical laboratory measurements (chemistry, hematology), 12-lead ECGs, vital signs (systolic and diastolic blood pressure, heart rate, respiratory rate, and body temperature), weight, waist circumference, and physical examinations as per Study Procedures in Table 1. […] All laboratory test results were evaluated by the investigator as to their clinical significance. Any observations at physical examinations or laboratory values considered by the investigator to be clinically significant were considered an adverse event.
# An adverse event can therefore be any unfavorable and/or unintended sign (including an abnormal laboratory finding), symptom, or disease temporally associated with the use of an investigational medication product, whether or not related to the investigational medication product. All adverse events, including observed or volunteered problems, complaints, or symptoms, were recorded on the appropriate CRF. Each adverse event was evaluated for duration, intensity, and causal relationship with the study medication or other factors.
# Serious Adverse Events: A serious adverse event (SAE) is defined as an adverse event that meets any of the following criteria: • Results in death; • Is life-threatening—The term “life-threatening” in the definition of “serious” refers to an event in which the patient was at risk of death at the time of the event. […] Important medical events that may not result in death, be life threatening, or require hospitalization were considered an SAE when, based upon appropriate medical judgment, they may have jeopardized the patient and may have required medical or surgical intervention to prevent one of the outcomes listed above.
# Adverse Events of Special Interest: Bleeding-related adverse events, glucose control (fasting blood glucose and HbA1c), and indicators of hepatic disorders (e.g., ALT or AST increases >3×ULN, total bilirubin increases of ≥2×ULN) were summarized separately and compared between treatment groups.
# Analysis of Safety: All analyses of safety were conducted on the safety population, which was defined as all randomized patients. The safety assessment was based on the frequency of adverse events, physical exams, vital signs and safety laboratory tests. AEs with new onset during the study between the initiation of study drug and 30 days after the last dose of study drug for each patient was considered treatment-emergent (TEAEs). This included any AE with onset prior to initiation of study drug and increased severity after the treatment initiation.
# This included overall incidence rates (regardless of severity and relationship to study drug), and incidence rates for moderate or severe adverse events. A summary of SAEs and adverse events leading to early discontinuation (for ≥30 days) were presented through data listings. Patients who restarted study drug were included in the summary of AEs leading to discontinuation. Safety laboratory tests and vital signs were summarized by post-treatment change from baseline for each of the parameters using descriptive statistics by treatment group. Those patients with significant laboratory abnormalities were identified in data listings. Additional safety parameters were summarized in data listings.
structure (smiles),measurement,setting,value
"CC/C=C\C/C=C\C/C=C\C/C=C\C/C=C\CCCC(=O)OCC [Icosapent Ethyl, eicosapentaenoic acid ethyl ester]",Overall adverse event rates compared with placebo,4 grams daily,similar
same,Positively Adjudicated Atrial Fibrillation/Flutter (hospitalization),N = 4089,127 (3.1%) n (%)
same,Serious TEAE (≥2%) Pneumonia,N = 4089,105 (2.6%) n (%)
same,Serious TEAE,Safety population N = 4089,1252 (30.6%) n (%)
same,Serious TEAE Leading to Death,Safety population N = 4089,94 (2.3%) n (%)
same,Serious TEAE Leading to Withdrawal of Study Drug,Safety population N = 4089,88 (2.2%) n (%)
same,Serious bleeding TEAE: Bleeding related disorders,Safety population N = 4089,111 (2.7%) n (%)
same,Serious bleeding TEAE: Central nervous system bleeding,Safety population N = 4089,14 (0.3%) n (%)
same,Serious bleeding TEAE: Gastrointestinal bleeding,Safety population N = 4089,62 (1.5%) n (%)
same,Serious bleeding TEAE: Other bleeding,Safety population N = 4089,41 (1.0%) n (%)
same,Subjects with at Least One TEAE,Safety population N = 4089,3343 (81.8%) n (%)
same,TEAE Leading to Withdrawal of Study Drug,Safety population N = 4089,321 (7.9%) n (%)
same,"Constipation (TEAE), percentage of patients",[1],(5.4%)
same,"Diarrhea (TEAE), percentage of patients",[1],(9.0%)
same,"Gastroesophageal Reflux Disease (TEAE), percentage of patients",[1],(3.0%)
same,"Gastrointestinal disorders (TEAE), percentage of patients",[1],(33.0%)
same,"Nausea (TEAE), percentage of patients",[1],(4.6%)
same,"Constipation (TEAE), patients",[2],221
same,"Diarrhea (TEAE), patients",[2],367
same,"Gastroesophageal Reflux Disease (TEAE), patients",[2],124
same,"Gastrointestinal disorders (TEAE), patients",[2],1350
same,"Nausea (TEAE), patients",[2],190
same,"Treatment-emergent serious adverse events for bleeding, rate",in vivo,2.7%
same,Rate of anemia (adverse event),lower than placebo,4.7%
same,Rate of diarrhea (adverse event),lower than placebo,9%
same,Rate of gastrointestinal adverse events,lower than placebo,33.0%
same,TEAE Anemia,[3],191 (4.7%) n (%)
same,TEAE Angina pectoris,[3],200 (4.9%) n (%)
same,TEAE Arthralgia,[3],313 (7.7%) n (%)
same,TEAE Atrial fibrillation,[3],215 (5.3%) n (%)
same,TEAE Back pain,[3],335 (8.2%) n (%)
same,TEAE Bronchitis,[3],306 (7.5%) n (%)
same,TEAE Cataract,[3],233 (5.7%) n (%)
same,TEAE Chest pain,[3],273 (6.7%) n (%)
same,TEAE Constipation,[3],221 (5.4%) n (%)
same,TEAE Cough,[3],241 (5.9%) n (%)
same,TEAE Diarrhea,[3],367 (9.0%) n (%)
same,TEAE Dizziness,[3],235 (5.7%) n (%)
same,TEAE Dyspnea,[3],254 (6.2%) n (%)
same,TEAE Fatigue,[3],228 (5.6%) n (%)
same,TEAE Hypertension,[3],320 (7.8%) n (%)
same,TEAE Influenza,[3],263 (6.4%) n (%)
same,TEAE Nasopharyngitis,[3],314 (7.7%) n (%)
same,TEAE Osteoarthritis,[3],241 (5.9%) n (%)
same,TEAE Pain in extremity,[3],235 (5.7%) n (%)
same,TEAE Peripheral edema,[3],267 (6.5%) n (%)
same,TEAE Pneumonia,[3],263 (6.4%) n (%)
same,Tolerability,no significant difference in rates of serious adverse events versus placebo,well tolerated
same,"Serious central nervous system bleeding, rate",[4],0.3%
same,"Serious gastrointestinal bleeding, rate",[4],1.5%
same,"Serious adverse event pneumonia, rate",only serious adverse event at frequency ≥2%,2.6%
same,"Aortic Aneurysm Rupture, percentage",[5],(0.0%)
same,"Brain Contusion, percentage",[5],(0.0%)
same,"Catheter Site Hemorrhage, percentage",[5],(0.0%)
same,"Cerebral Hemorrhage, percentage",[5],(0.0%)
same,"Cystitis Hemorrhagic, percentage",[5],(0.0%)
same,"Diverticulitis Intestinal Hemorrhagic, percentage",[5],(0.0%)
same,"Diverticulum Intestinal Hemorrhagic, percentage",[5],(0.1%)
same,"Duodenal Ulcer Hemorrhage, percentage",[5],(0.0%)
same,"Ecchymosis, percentage",[5],(0.0%)
same,"Epistaxis, percentage",[5],(0.2%)
same,"Esophageal Hemorrhage, percentage",[5],(0.0%)
same,"Extravasation Blood, percentage",[5],(0.0%)
same,"Gastric Hemorrhage, percentage",[5],(0.0%)
same,"Gastric Ulcer Hemorrhage, percentage",[5],(0.1%)
same,"Gastrointestinal Angiodysplasia Hemorrhagic, percentage",[5],(0.0%)
same,"Gastrointestinal Hemorrhage, percentage",[5],(0.6%)
same,"Genital Hemorrhage, percentage",[5],(0.0%)
same,"Hemarthrosis, percentage",[5],(0.0%)
same,"Hematemesis, percentage",[5],(0.1%)
same,"Hematochezia, percentage",[5],(0.0%)
same,"Hematoma, percentage",[5],(0.0%)
same,"Hematuria, percentage",[5],(0.2%)
same,"Hemoptysis, percentage",[5],(0.0%)
same,"Hemorrhagic Anemia, percentage",[5],(0.1%)
same,"Hemorrhagic Duodenitis, percentage",[5],(0.0%)
same,"Hemorrhagic Transformation Stroke, percentage",[5],(0.0%)
same,"Hemorrhoidal Hemorrhage, percentage",[5],(0.1%)
same,"Hemothorax, percentage",[5],(0.0%)
same,"Immune Thrombocytopenic Purpura, percentage",[5],(0.0%)
same,"Intra-Abdominal Hemorrhage, percentage",[5],(0.0%)
same,"Intracranial Hemorrhage, percentage",[5],(0.0%)
same,"Large Intestinal Hemorrhage, percentage",[5],(0.0%)
same,"Lower Gastrointestinal Hemorrhage, percentage",[5],(0.1%)
same,"Mallory-Weiss Syndrome, percentage",[5],(0.0%)
same,"Melaena, percentage",[5],(0.1%)
same,"Menorrhagia, percentage",[5],(0.0%)
same,"Mouth Hemorrhage, percentage",[5],(0.0%)
same,"Pancreatitis Hemorrhagic, percentage",[5],(0.0%)
same,"Peptic Ulcer Hemorrhage, percentage",[5],(0.0%)
same,"Pericardial Hemorrhage, percentage",[5],(0.0%)
same,"Post Procedural Hematoma, percentage",[5],(0.0%)
same,"Post Procedural Hematuria, percentage",[5],(0.0%)
same,"Post Procedural Hemorrhage, percentage",[5],(0.1%)
same,"Rectal Hemorrhage, percentage",[5],(0.2%)
same,"Renal Hemorrhage, percentage",[5],(0.0%)
same,"Retinal Hemorrhage, percentage",[5],(0.0%)
same,"Retroperitoneal Hematoma, percentage",[5],(0.0%)
same,"Retroperitoneal Hemorrhage, percentage",[5],(0.0%)
same,"Shock Hemorrhagic, percentage",[5],(0.0%)
same,"Subarachnoid Hemorrhage, percentage",[5],(0.0%)
same,"Subdural Hematoma, percentage",[5],(0.2%)
same,"Subdural Hemorrhage, percentage",[5],(0.0%)
same,"Traumatic Hematoma, percentage",[5],(0.0%)
same,"Traumatic Intracranial Hemorrhage, percentage",[5],(0.0%)
same,"Ulcer Hemorrhage, percentage",[5],(0.0%)
same,"Upper Gastrointestinal Hemorrhage, percentage",[5],(0.1%)
same,"Urinary Bladder Hemorrhage, percentage",[5],(0.0%)
same,"Aortic Aneurysm Rupture, patients",[6],1
same,"Brain Contusion, patients",[6],0
same,"Catheter Site Hemorrhage, patients",[6],0
same,"Cerebral Hemorrhage, patients",[6],0
same,"Cystitis Hemorrhagic, patients",[6],2
same,"Diverticulitis Intestinal Hemorrhagic, patients",[6],0
same,"Diverticulum Intestinal Hemorrhagic, patients",[6],3
same,"Duodenal Ulcer Hemorrhage, patients",[6],2
same,"Ecchymosis, patients",[6],1
same,"Epistaxis, patients",[6],7
same,"Esophageal Hemorrhage, patients",[6],0
same,"Extravasation Blood, patients",[6],1
same,"Gastric Hemorrhage, patients",[6],1
same,"Gastric Ulcer Hemorrhage, patients",[6],3
same,"Gastrointestinal Angiodysplasia Hemorrhagic, patients",[6],1
same,"Gastrointestinal Hemorrhage, patients",[6],26
same,"Genital Hemorrhage, patients",[6],1
same,"Hemarthrosis, patients",[6],0
same,"Hematemesis, patients",[6],3
same,"Hematochezia, patients",[6],1
same,"Hematoma, patients",[6],1
same,"Hematuria, patients",[6],8
same,"Hemoptysis, patients",[6],1
same,"Hemorrhagic Anemia, patients",[6],4
same,"Hemorrhagic Duodenitis, patients",[6],0
same,"Hemorrhagic Transformation Stroke, patients",[6],1
same,"Hemorrhoidal Hemorrhage, patients",[6],3
same,"Hemothorax, patients",[6],1
same,"Immune Thrombocytopenic Purpura, patients",[6],0
same,"Intra-Abdominal Hemorrhage, patients",[6],1
same,"Intracranial Hemorrhage, patients",[6],0
same,"Large Intestinal Hemorrhage, patients",[6],1
same,"Lower Gastrointestinal Hemorrhage, patients",[6],5
same,"Mallory-Weiss Syndrome, patients",[6],1
same,"Melaena, patients",[6],3
same,"Menorrhagia, patients",[6],1
same,"Mouth Hemorrhage, patients",[6],0
same,"Pancreatitis Hemorrhagic, patients",[6],1
same,"Peptic Ulcer Hemorrhage, patients",[6],1
same,"Pericardial Hemorrhage, patients",[6],0
same,"Post Procedural Hematoma, patients",[6],1
same,"Post Procedural Hematuria, patients",[6],0
same,"Post Procedural Hemorrhage, patients",[6],5
same,"Rectal Hemorrhage, patients",[6],10
same,"Renal Hemorrhage, patients",[6],0
same,"Retinal Hemorrhage, patients",[6],1
same,"Retroperitoneal Hematoma, patients",[6],0
same,"Retroperitoneal Hemorrhage, patients",[6],1
same,"Shock Hemorrhagic, patients",[6],2
same,"Subarachnoid Hemorrhage, patients",[6],2
same,"Subdural Hematoma, patients",[6],9
same,"Subdural Hemorrhage, patients",[6],2
same,"Traumatic Hematoma, patients",[6],2
same,"Traumatic Intracranial Hemorrhage, patients",[6],0
same,"Ulcer Hemorrhage, patients",[6],1
same,"Upper Gastrointestinal Hemorrhage, patients",[6],3
same,"Urinary Bladder Hemorrhage, patients",[6],1
same,"Central Nervous System Bleeding (category), percentage",[7],(0.3%)
same,"Gastrointestinal Bleeding (category), percentage",[7],(1.5%)
same,"Other Bleeding (category), percentage",[7],(1.0%)
same,"Patients with Bleeding-Related Disorders, percentage",[7],(2.7%)
same,"Central Nervous System Bleeding (category), patients",[8],14
same,"Gastrointestinal Bleeding (category), patients",[8],62
same,"Other Bleeding (category), patients",[8],41
same,"Patients with Bleeding-Related Disorders, patients",[8],111
same,Rate of atrial fibrillation (adverse event),[9],5.3%
same,Rate of peripheral edema (adverse event),[9],6.5%

# Reference: patent US11298333B1, “Methods of reducing the risk of cardiovascular events in a subject” (Amarin Pharmaceuticals Ireland Limited, priority 2018, dated 2022)
